What all share (assay): inhibition of tumour cell growth, NCI panel, 48 h
Assay [1] deals with SK-MEL-28 melanoma.
In assay [2] the test system is KM12 colon.
Assay [3] deals with EKVX NSCLC.
Assay [4] relates to CAKI-1 renal.
For assay [5], the system named is SNB-19 CNS.
Assay [6] has as its system SNB-75 CNS.
Assay [7] deals with SN12C renal.
In assay [8] the test system is DU-145 prostate.
The subject of assay [9] is HL-60(TB) leukemia.
Assay [10] has as its system HOP-62 NSCLC.
In assay [11] the test system is SF-295 CNS.
The test system of assay [12] is A498 renal.
The subject of assay [13] is UACC-62 melanoma.
In assay [14] the test system is OVCAR-4 ovarian.
For assay [15], the system named is TK-10 renal.
For assay [16], the system named is MDA-N.
Assay [17] concerns NCI-H460 lung.

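Tested at 5 concentrations; 48 h exposure; 96-well plates; endpoints linearly interpolated, else capped at highest concentration. TGI is the concentration that stops growth completely.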 Where a SMILES comes first, the peptide text is derived from it. The star is where a group is joined. Boc = CC(C)(C)OC(=O)*; OBn = c1ccc(CO*)cc1

For the compound `Cc1n[nH]c(=O)n1/N=C\CC/C=N\n1c(C)n[nH]c1=O`, the TGI in assay [1], in [2], in assay [3], in [4], in assay [5] and in assay [6] was greater than 100 µM throughout. Besides, the TGI in [7], in assay [8], in assay [9], in [10], in assay [11] and in [12] was greater than 100 µM in each case. Also, the TGI in assay [13], in assay [14], in assay [15] and in [16] was greater than 100 µM throughout.

`O=C1/C(=C/c2c(Cl)[nH]c3ccccc23)c2ccccc2N1c1ccccc1`: the TGI was 23.8 µM in assay [1]; 19.7 µM in assay [2]; 27.2 µM in assay [3]; greater than 100 µM in assay [4]; greater than 100 µM in assay [5]; 37.8 µM in [6]. The TGI came to 20.3 µM in [7]; 32.9 µM in assay [8]; 13.9 µM in assay [9]; 26.1 µM in assay [10]; 8.54 µM in assay [11]; 40.8 µM in [12]. Besides, the TGI came to 21.1 µM in assay [13], 39.9 µM in assay [15], 3.8 µM in assay [16] and 14.4 µM in assay [17].

Regarding `CC(NC(=O)C(Cc1ccccc1)NC(=O)C(Cc1ccccc1)NC(=O)OC(C)(C)C)C(=O)OCc1ccccc1` (stereo not drawn) (Boc-Phe-Phe-Ala-OBn; configuration not given here), the TGI in [2], in assay [3], in assay [6], in [7], in assay [8] and in assay [9] was greater than 100 µM throughout. In addition, the TGI in assay [10], in assay [11], in assay [12], in [13], in assay [15] and in assay [16] was greater than 100 µM throughout. The compound also registered a TGI in assay [17] greater than 100 µM.

In the case of `N#Cc1[nH]c(=O)n(-c2cccc3ccccc23)c1N`, the TGI in assay [1], in [2], in assay [3], in assay [4], in assay [5] and in [7] was greater than 10 µM in each case. Further, the TGI in assay [8], in assay [9], in assay [10], in assay [11], in assay [12] and in assay [13] was greater than 10 µM in each case. In addition, the TGI in assay [14], in assay [15], in assay [16] and in assay [17] was greater than 10 µM each time.

`O=c1[nH]c(-c2ccccc2)nc2c1sc1nc3ccccc3n12`: the TGI in assay [1], in [2], in [3], in assay [4], in assay [5] and in [6] was greater than 100 µM in each case. Moreover, the TGI in assay [7], in assay [8], in assay [9], in assay [11], in [12] and in assay [13] was greater than 100 µM throughout. The TGI in assay [14], in [15], in assay [16] and in [17] was greater than 100 µM in each case.

Consider `Cn1cnc(N2CCCC2)c(C#N)c1=O`, for which the TGI in assay [1], in assay [2], in [3], in [4], in assay [5] and in assay [7] was greater than 100 µM each time. Moreover, the TGI in assay [8], in [9], in assay [10], in [11], in assay [12] and in assay [13] was greater than 100 µM throughout. The TGI in assay [14], in assay [15], in assay [16] and in assay [17] was greater than 100 µM each time.

Turning to `O=C(/C=C/c1ccc(Cl)cc1)c1cccs1`, the TGI is 54.2 µM in assay [1]; 31.1 µM in [2]; 68 µM in assay [3]; 45.2 µM in [4]; 33.4 µM in assay [5]; 43.4 µM in assay [6]. The TGI in [7] was 33.2 µM; in assay [8], greater than 100 µM; in assay [9], 29.8 µM; in [10], 89.8 µM; in assay [11], 38.5 µM; in [12], 56 µM. The TGI turned out to be 49.2 µM in assay [13], 47 µM in assay [15], 31.6 µM in assay [16] and 35.4 µM in assay [17].

For `COc1ccc(C2(O)c3ccccc3C(=O)N(C)C2(O)c2ccc(OC)cc2)cc1` (stereo not drawn), the TGI in assay [1] is greater than 100 µM; in assay [2] it was 89.4 µM; in assay [3], greater than 100 µM; in assay [4], greater than 100 µM; in assay [5], greater than 100 µM; in assay [7], greater than 100 µM. Also, the TGI in assay [8], in assay [9], in assay [10], in assay [11], in [12] and in assay [13] was greater than 100 µM in each case. Besides, the TGI is greater than 100 µM in [14], greater than 100 µM in assay [15], 38.1 µM in [16] and greater than 100 µM in [17].

Consider `Cc1ccc(S(=O)(=O)NNC2(NS(=O)(=O)c3ccc(Cl)cc3)C(Cl)=C(Cl)C(=O)c3ccccc32)cc1` (stereo not drawn), for which the TGI in assay [1] is 60.7 µM; in assay [2], 35.2 µM; in assay [3], 28.9 µM; in assay [4], 32.4 µM; in assay [5], 29.8 µM; in assay [7], 31.6 µM. Further, the TGI in [8] was found to be 33.2 µM; in [9] it was 37.4 µM; in assay [10], 54.8 µM; in [11], 51.4 µM; in [12], 36.7 µM; in [13], 31 µM. The TGI in assay [14] came to 30.1 µM; in assay [15] it was 30.5 µM; in [16] it was 32.2 µM; in assay [17] it was 38.1 µM.

In the case of `COC(=O)C1CCC(=O)N1C(c1ccccc1)c1cc(OC)c(OC)c(OC)c1` (stereo not drawn), the TGI in [1], in [2], in assay [3], in assay [4], in [5] and in assay [7] was greater than 100 µM throughout. Besides, the TGI is greater than 100 µM in assay [8]; 57.8 µM in [9]; greater than 100 µM in [10]; greater than 100 µM in [11]; greater than 100 µM in assay [12]; greater than 100 µM in [13]. Moreover, the TGI in assay [14] is greater than 100 µM; in assay [15], greater than 100 µM; in assay [16], 58.8 µM; in [17], greater than 100 µM.

For the compound `O=C(CCCN1CCC2(CC1)CC(=O)N(N1CCCCCC1)C2=O)c1ccc(F)cc1`, the TGI in [1], in assay [3], in [4], in assay [6], in assay [7] and in assay [8] was greater than 100 µM throughout. Besides, the TGI is greater than 100 µM in assay [9]; greater than 100 µM in assay [10]; 63.2 µM in assay [11]; greater than 100 µM in assay [12]; greater than 100 µM in assay [13]; greater than 100 µM in [14]. Moreover, the TGI in assay [15] and in assay [16] was greater than 100 µM in each case.

For the compound `COc1ccc(C(=O)/C=C/c2cccnc2)cc1OC`, the TGI in assay [1] is 33.1 µM; in [3] it was 28.7 µM; in assay [4], 15.7 µM; in [5], 27.6 µM; in assay [6] it was 24.4 µM; in assay [7], 18.3 µM. Besides, the TGI was found to be 27.8 µM in [8]; 6.01 µM in assay [9]; 28.2 µM in assay [10]; 26.3 µM in assay [11]; 27.8 µM in assay [12]; 28.4 µM in assay [13]. For the same compound, the TGI in [14] was 25.7 µM; in assay [15], 29.1 µM; in assay [16], 25.6 µM.

In the case of `c1ccc(C2OCC(OC3CCCCO3)CO2)cc1` (stereo not drawn), the TGI in assay [1], in assay [3], in [4], in assay [5], in assay [7] and in assay [8] was greater than 100 µM each time. Further, the TGI in assay [9], in [10], in assay [11], in assay [12], in assay [13] and in assay [14] was greater than 100 µM each time. Besides, the TGI in [15], in assay [16] and in assay [17] was greater than 100 µM in each case.

`O=C1NC(=O)C(COCc2ccccc2)C2=C1SCCC2` (stereo not drawn): the TGI in [1], in assay [2], in assay [3], in assay [4], in [5] and in [6] was greater than 100 µM throughout. For the same compound, the TGI in [8], in assay [9], in assay [10], in [11], in [12] and in assay [14] was greater than 100 µM throughout. In addition, the TGI in assay [16] and in assay [17] was greater than 100 µM throughout.

On to `COc1cccc2c1C(=O)c1ccc3cc(CCl)cc(O)c3c1C2=O`, for which the TGI in [1] is 1.04 µM; in assay [2] it was 0.339 µM; in assay [3], 1.57 µM; in assay [4], 1.7 µM; in [5] it was 1.86 µM; in assay [6], 1.67 µM. For the same compound, the TGI in assay [7] turned out to be 0.334 µM; in assay [8], 1.78 µM; in assay [9], 0.551 µM; in assay [10], 1.08 µM; in assay [11], 2.23 µM; in assay [12], 1.7 µM. The TGI in assay [13] was determined as 0.687 µM; in assay [15] it was 0.823 µM; in assay [16], 0.765 µM; in [17], 0.768 µM.

In the case of `c1ccc2c(c1)nc1n2C2CCC(C2)N1` (stereo not drawn), the TGI in assay [1], in assay [3], in assay [4], in assay [5], in assay [6] and in assay [7] was greater than 10 µM each time. For the same compound, the TGI in [8], in [9], in assay [10], in assay [11], in [12] and in assay [13] was greater than 10 µM in each case. Besides, the TGI in [14], in [15], in [16] and in assay [17] was greater than 10 µM throughout.

Regarding `Nc1ncnc2c1cnn2Cc1cn(COCC(O)CO)nn1` (stereo not drawn), the TGI in [1], in assay [2], in [3], in [4], in assay [5] and in assay [7] was greater than 100 µM each time. The TGI in assay [8], in assay [9], in assay [10], in assay [11], in assay [12] and in assay [13] was greater than 100 µM in each case. The TGI in [14], in assay [15] and in assay [16] was greater than 100 µM each time.

As for `COc1cc(/C=C2\C(=O)N(Cc3ccccc3)C(c3ccccc3)S2(=O)=O)cc(OC)c1OC` (stereo not drawn), the TGI in [1], in assay [2], in [3], in [4], in [5] and in assay [7] was greater than 100 µM throughout. Besides, the TGI in [8] was greater than 100 µM; in assay [9], 44.9 µM; in assay [10], greater than 100 µM; in [11] it was greater than 100 µM; in [12] it was greater than 100 µM; in assay [13] it was greater than 100 µM. Further, the TGI in [14], in assay [15], in assay [16] and in assay [17] was greater than 100 µM throughout.
